Experimental data reported in US7803619B2, “Embryoid body-based screen” (Geneprotech, Inc., priority 2004, dated 2010).

Experiments:
[1] = test system: EB from ES cell line (ES-6) containing necdin-puromycin-IRES-β-galactosidase cassette; assay: Embryoid body neurogenesis screen: necdin promoter-driven β-galactosidase expression; format: cell-based, mouse; details: 48 h exposure
Procedure: A brief description of the procedure follows. A tagged ES cell line containing a stably integrated necdin-puromycin-IRES-β-galactosidase cassette was allowed to form EBs. One thousand cells in 200 μl media without LIF were plated in a 96-well PCR plate. On the third day, the EBs were transferred to a 96-well tissue culture plate coated with laminin. The medium was changed on the fourth day and appropriate small molecule compounds were added with each compound being assessed in triplicate. Six wells received no treatment and six wells received treatment with vehicle control (DMSO or ethanol diluted in similar manner as small molecule compounds). The cells were incubated with compounds for 48 hours, compounds removed by washing with PBS and cells allowed to grow and differentiate in media for 4 days. Cells were lysed on the fifth day and the lysates were analyzed for β-galactosidase expression. […] Two positive controls, 50 ng/ml nerve growth factor (NGF) and 1 uM retinoic acid (RA) (Sigma Chemical, St. Louis) and small molecule compounds (piperine, curcumin, rosmarinic acid, U0126, LY294002) were used for screening. Fold increase was calculated based on the respective vehicle control […] activity. […] This is not surprising since NGF is a stronger neurogenic growth factor than is RA. […]
An ES cell line (ES-6; Preliminary Studies Section C.2.) containing a stably integrated necdin-puromycin-IRES-β-galactosidase cassette was allowed to form EB. […] The medium was changed on the fourth day and appropriate small molecule compounds were added with each compound being assessed in triplicate. […] Cells were lysed on the fifth day and the lysates were analyzed for β-galactosidase expression. […] Fold increase was calculated based on the respective vehicle control β-galactosidase activity. […]
After addition of puromycin to the media, neuronal cells are the anticipated survivors and other cell types are expected to be eliminated. Since activity of the necdin promoter confers β-galactosidase expression, a quantitative measurement of β-galactosidase activity is performed. […]

[2] = test system: myeloid leukemia HL60 cells; details: cited from earlier work
[3] = test system: chorioallantoic membrane; details: cited from earlier work
[4] = test system: EB; details: cited from earlier work
[5] = test system: endothelial cell culture system; details: cited from earlier work
[6] = test system: murine ES cells; details: cited from earlier work

## nerve growth factor [NGF]
[1]; positive control, 50 ng/ml
  Fold increase in neurogenesis (β-galactosidase activity relative to respective vehicle control): 30 fold

## boswellic acid acetate
[2]
  Differentiation into monocyte-like cells: induces differentiation

## O=C(/C=C/C=C/c1ccc2c(c1)OCO2)N1CCCCC1 [piperine]
[1]; small molecule compound at 10 μM, lysed on fifth day after removal
  Fold increase in neurogenesis (β-galactosidase activity relative to respective vehicle control): 3.3 fold

## O=C1CCC(N2C(=O)c3ccccc3C2=O)C(=O)N1 (centres unmarked) [thalidomide]
[3]
  Anti-angiogenic effect: no anti-angiogenic effect
[4]
  Anti-angiogenic effect: had anti-angiogenic effect
[5]
  Anti-angiogenic effect: no anti-angiogenic effect

## CC1=C(/C=C/C(C)=C/C=C/C(C)=C/C(=O)O)C(C)(C)CCC1 [RA, retinoic acid]
[1]; positive control, 1 uM
  Fold increase in neurogenesis (β-galactosidase activity relative to respective vehicle control): 11 fold

## O=C1O[C@H]([C@@H](O)CO)C(O)=C1O [vitamin C, ascorbic acid]
[6]
  Number of cardiac myocytes showing rhythmic contractile activity, positive for sarcomeric myosin and alpha-actinin: markedly increased
